In ChEMBL document CHEMBL5550146, “Design, synthesis, and biological evaluation of novel sesquiterpene lactone derivatives as PKM2 activators with potent anti-ulcerative colitis activities” (Eur J Med Chem, 2024):
Active and inactive are the calls of the source. The calls are words filed in the database; no cut-off is given here.

Legend:
[1] = system: T-cell; test: Antiproliferative activity against concanavalin A-stimulated C57BL/6 mouse T cells measured after 48 hrs by CCK8 assay; format: functional, cell-based; conditions: C57BL/6, T-cell
[2] = molecular target: T1, Pyruvate kinase PKM (Homo sapiens, UniProt P14618); test: Activation of recombinant human PKM2 incubated for 40 mins by pyruvate kinase assay
Target sequence in this assay (P14618 whole entry): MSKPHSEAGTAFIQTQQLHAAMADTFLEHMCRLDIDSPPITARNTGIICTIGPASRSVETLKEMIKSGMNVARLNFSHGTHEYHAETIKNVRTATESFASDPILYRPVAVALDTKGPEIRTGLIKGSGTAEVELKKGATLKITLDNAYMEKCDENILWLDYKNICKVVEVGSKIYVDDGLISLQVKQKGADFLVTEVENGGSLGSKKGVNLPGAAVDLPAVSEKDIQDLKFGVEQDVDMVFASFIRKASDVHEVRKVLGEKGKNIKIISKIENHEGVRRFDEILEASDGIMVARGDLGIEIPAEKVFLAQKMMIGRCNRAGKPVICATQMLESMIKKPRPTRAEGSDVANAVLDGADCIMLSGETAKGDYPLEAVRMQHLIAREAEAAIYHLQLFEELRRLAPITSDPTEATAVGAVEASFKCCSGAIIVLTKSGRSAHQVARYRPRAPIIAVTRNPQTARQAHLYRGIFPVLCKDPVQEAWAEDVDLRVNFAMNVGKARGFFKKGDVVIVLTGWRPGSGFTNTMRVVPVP

[3] = system: T-cell; test: Potency index, ratio of Parthenolide IC50 to test compound IC50 for antiproliferative activity against concanavalin A-stimulated C57BL/6 mouse T cells measured after 48 hrs by CCK8 assay; format: functional
[4] = molecular target: Pyruvate kinase PKM (Mus musculus) (UniProt P52480); test: Induction of thermal stabilization of PKM2 in C57BL/6 mouse CD4+ T cells at 1 uM incubated for 4 hrs at 58 to 64 degreeC by CETSA; format: cell-based; conditions: CD4+ T cell
[5] = molecular target: T1, Pyruvate kinase PKM; test: Binding affinity to PKM2 (unknown origin) assessed as association rate constant (Ka) at 3.125 to 50 uM by SPR analysis; conditions: filed as activator, dose 3.125-50 µM
Target sequence in this assay (P14618 2-531 limits assumed): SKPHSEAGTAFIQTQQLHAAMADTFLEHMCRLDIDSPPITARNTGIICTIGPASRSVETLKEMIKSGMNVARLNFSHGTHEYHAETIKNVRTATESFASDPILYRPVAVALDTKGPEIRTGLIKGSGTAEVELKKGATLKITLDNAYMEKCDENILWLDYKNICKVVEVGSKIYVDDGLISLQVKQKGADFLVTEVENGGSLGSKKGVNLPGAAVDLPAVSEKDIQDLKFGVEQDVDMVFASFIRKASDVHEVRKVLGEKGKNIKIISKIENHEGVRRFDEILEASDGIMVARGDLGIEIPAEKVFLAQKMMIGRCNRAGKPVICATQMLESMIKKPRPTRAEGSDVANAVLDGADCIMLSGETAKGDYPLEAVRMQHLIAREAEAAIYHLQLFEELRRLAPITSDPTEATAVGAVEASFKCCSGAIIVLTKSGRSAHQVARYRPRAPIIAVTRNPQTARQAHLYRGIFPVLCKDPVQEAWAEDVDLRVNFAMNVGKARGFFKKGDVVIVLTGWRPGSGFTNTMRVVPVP

[6] = molecular target: T1, Pyruvate kinase PKM; test: Binding affinity to PKM2 (unknown origin) assessed as dissociation rate constant (Kd) at 3.125 to 50 uM by SPR analysis
Target sequence in this assay (P14618 whole entry): as the sequence (P14618 whole entry) above

[7] = molecular target: T1, Pyruvate kinase PKM; test: Binding affinity to PKM2 (unknown origin) assessed as dissociation constant by SPR analysis
Target sequence in this assay (P14618 whole entry): as above

[8] = molecular target: T1, Pyruvate kinase PKM; test: Covalent binding affinity to Cys423 residue of recombinant human PKM2 at 50 uM incubated for 60 mins by LC-MS/MS analysis; conditions: filed as activator
Target sequence in this assay (P14618 2-531 limits assumed): as the sequence (P14618 2-531 limits assumed) above

[9] = system: Th17; test: Downregulation of total PKM2 expression in C57BL/6 mouse Th17 cells differentiated from CD4+ T cells at 0.1 to 1 uM incubated for 48 hrs by Western blot analysis; format: functional, cell-based; conditions: dose 0.1-1 µM
[10] = molecular target: Pyruvate kinase PKM (Mus musculus) (UniProt P52480); test: Inhibition of PKM2 dimer nuclear translocation in C57BL/6 mouse Th17 cells differentiated from CD4+ T cells assessed as decrease in PKM2 expression in nucleus at 0.1 to 1 uM incubated for 48 hrs by Western blot analysis; format: cell-based; conditions: dose 0.1-1 µM
[11] = system: Th17; test: Effect on PKM2 expression in cytoplasm of C57BL/6 mouse Th17 cells differentiated from CD4+ T cells at 0.1 to 1 uM incubated for 48 hrs by Western blot analysis; format: functional, cell-based; conditions: dose 0.1-1 µM
[12] = molecular target: Pyruvate kinase PKM (Mus musculus) (UniProt P52480); test: Activation of PKM2 in C57BL/6 mouse Th17 cells differentiated from CD4+ T cells assessed as induction of PKM2 tetramer formation at 0.1 to 1 uM incubated for 48 hrs by immunoblotting based protein cross linking assay; format: cell-based; conditions: filed as activator, dose 0.1-1 µM
[13] = system: Th17; test: Inhibition of C57BL/6 mouse Th17 cell differentiation from CD4+ T cells assessed as reduction in RORC mRNA expression at 0.1 uM incubated for 96 hrs by qPCR analysis; format: functional, cell-based
[14] = system: Th17; test: Inhibition of C57BL/6 mouse Th17 cell differentiation from CD4+ T cells assessed as reduction in IL-17a mRNA expression at 0.1 uM incubated for 96 hrs by qPCR analysis; format: functional, cell-based
[15] = system: Th17; test: Inhibition of C57BL/6 mouse Th17 cell differentiation from CD4+ T cells assessed as reduction in […] mRNA expression at 0.1 uM incubated for 96 hrs by qPCR analysis; format: functional, cell-based
[16] = system: Th17; test: Inhibition of C57BL/6 mouse Th17 cell differentiation from CD4+ T cells assessed as reduction in IL-21 mRNA expression at 0.1 uM incubated for 96 hrs by qPCR analysis; format: functional, cell-based
[17] = Inhibition of C57BL/6 mouse Th17 cells differentiation from CD4+ T cells assessed as frequency of CD4+ IL-17A+ Th17 cells at 0.1 uM incubated for 96 hrs by flow cytometric analysis (reference value: 23.52 %); format: functional; parameters: scale not given: the % may be the effect or the level left
[18] = Inhibition of C57BL/6 mouse Th17 cells differentiation from CD4+ T cells assessed as frequency of CD4+ IL-17A+ Th17 cells at 0.3 uM incubated for 96 hrs by flow cytometric analysis (reference value: 23.52 %); format: functional; parameters: scale not given: the % may be the effect or the level left
[19] = Inhibition of C57BL/6 mouse Th17 cells differentiation from CD4+ T cells assessed as frequency of CD4+ IL-17A+ Th17 cells at 1 uM incubated for 96 hrs by flow cytometric analysis (reference value: 23.52 %); format: functional; parameters: scale not given: the % may be the effect or the level left
[20] = Inhibition of C57BL/6 mouse Regulatory T cells differentiation from CD4+ T cells assessed as frequency of CD4+ Foxp3+ Treg cells at 0.1 uM incubated for 96 hrs by flow cytometric analysis ( Rvb = 24.48 %); format: functional, Regulatory T cell; parameters: scale not given: the % may be the effect or the level left
[21] = Inhibition of C57BL/6 mouse Regulatory T cells differentiation from CD4+ T cells assessed as frequency of CD4+ Foxp3+ Treg cells at 0.3 uM incubated for 96 hrs by flow cytometric analysis ( Rvb = 24.48 %); format: functional, Regulatory T cell; parameters: scale not given: the % may be the effect or the level left
[22] = Inhibition of C57BL/6 mouse Regulatory T cells differentiation from CD4+ T cells assessed as frequency of CD4+ Foxp3+ Treg cells at 1 uM incubated for 96 hrs by flow cytometric analysis ( Rvb = 24.48 %); format: functional, Regulatory T cell; parameters: scale not given: the % may be the effect or the level left
[23] = system: Regulatory T cell; test: Inhibition of C57BL/6 mouse Regulatory T cells differentiation from CD4+ T cells assessed as change in Foxp3 mRNA expression at 0.1 to 1 uM incubated for 96 hrs by qPCR analysis; format: functional, cell-based; conditions: dose 0.1-1 µM
[24] = system: Regulatory T cell; test: Inhibition of C57BL/6 mouse Regulatory T cells differentiation from CD4+ T cells assessed as change in IL-10 mRNA expression at 0.1 to 1 uM incubated for 96 hrs by qPCR analysis; format: functional, cell-based; conditions: dose 0.1-1 µM
[25] = system: Th17; test: Inhibition of C57BL/6 mouse Th17 cell differentiation from CD4+ T cells assessed as decrease in glucose consumption incubated for 48 hrs by colorimetric analysis; format: functional, cell-based; conditions: dose 1.0 µM
[26] = system: Th17; test: Inhibition of C57BL/6 mouse Th17 cell differentiation from CD4+ T cells assessed as reduction in lactate production at […] to 1 uM incubated for 48 hrs by colorimetric analysis; format: functional, cell-based
[27] = system: Th17; test: Inhibition of C57BL/6 mouse Th17 cell differentiation from CD4+ T cells assessed as reduction in Glut1 protein level; format: functional, cell-based
[28] = system: Th17; test: Inhibition of C57BL/6 mouse Th17 cell differentiation from CD4+ T cells assessed as reduction in HK2 protein level; format: functional, cell-based
[29] = system: Th17; test: Inhibition of C57BL/6 mouse Th17 cell differentiation from CD4+ T cells assessed as reduction in PFK1 protein level; format: functional, cell-based
[30] = system: Th17; test: Inhibition of C57BL/6 mouse Th17 cell differentiation from CD4+ T cells assessed as reduction in Glut1 mRNA level; format: functional, cell-based
[31] = system: Th17; test: Inhibition of C57BL/6 mouse Th17 cell differentiation from CD4+ T cells assessed as reduction in HK2 mRNA level; format: functional, cell-based
[32] = system: Th17; test: Inhibition of C57BL/6 mouse Th17 cell differentiation from CD4+ T cells assessed as reduction in PFK1 mRNA level; format: functional, cell-based
[33] = system: Mus musculus; test: Antiinflammatory activity in DSS-induced colitis female C57BL/6 mouse model assessed as reduction in body weight loss at 5 to 10 mg/kg, ip administered for 12 days with subsequent treatment of DSS for 9 days followed by drinking water for 3 days; format: functional, organism-based; conditions: dose 5-10 mg/kg, time 12.0 day
[34] = system: Mus musculus; test: Antiinflammatory activity in DSS-induced colitis female C57BL/6 mouse model assessed as reduction in disease activity index score at 5 to 10 mg/kg, ip administered for 12 days with subsequent treatment of DSS for 9 days followed by drinking water for 3 days; format: functional, organism-based; conditions: dose 5-10 mg/kg, time 12.0 day
[35] = system: Mus musculus; test: Antiinflammatory activity in DSS-induced colitis female C57BL/6 mouse model assessed as reduction in shortening of colon length at 5 mg/kg, ip administered for 12 days with subsequent treatment of DSS for 9 days followed by drinking water for 3 days; format: functional, organism-based; conditions: time 12.0 day
[36] = system: Mus musculus; test: Antiinflammatory activity in DSS-induced colitis female C57BL/6 mouse model assessed as improvement in crypt deformation at 5 to 10 mg/kg, ip administered for 12 days with subsequent treatment of DSS for 9 days followed by drinking water for 3 days by H and E staining based analysis; format: functional, organism-based; conditions: dose 5-10 mg/kg, time 12.0 day
[37] = system: Mus musculus; test: Antiinflammatory activity in DSS-induced colitis female C57BL/6 mouse model assessed as improvement in inflammatory cell infiltration at 5 to 10 mg/kg, ip administered for 12 days with subsequent treatment of DSS for 9 days followed by drinking water for 3 days by H and E staining based analysis; format: functional, organism-based; conditions: dose 5-10 mg/kg, time 12.0 day
[38] = system: Mus musculus; test: Antiinflammatory activity in DSS-induced colitis female C57BL/6 mouse model assessed as improvement in goblet cell loss at 5 to 10 mg/kg, ip administered for 12 days with subsequent treatment of DSS for 9 days followed by drinking water for 3 days by H and E staining based analysis; format: functional, organism-based; conditions: dose 5-10 mg/kg, time 12.0 day

Pyruvate kinase PKM (Mus musculus), sequence (P52480 whole entry): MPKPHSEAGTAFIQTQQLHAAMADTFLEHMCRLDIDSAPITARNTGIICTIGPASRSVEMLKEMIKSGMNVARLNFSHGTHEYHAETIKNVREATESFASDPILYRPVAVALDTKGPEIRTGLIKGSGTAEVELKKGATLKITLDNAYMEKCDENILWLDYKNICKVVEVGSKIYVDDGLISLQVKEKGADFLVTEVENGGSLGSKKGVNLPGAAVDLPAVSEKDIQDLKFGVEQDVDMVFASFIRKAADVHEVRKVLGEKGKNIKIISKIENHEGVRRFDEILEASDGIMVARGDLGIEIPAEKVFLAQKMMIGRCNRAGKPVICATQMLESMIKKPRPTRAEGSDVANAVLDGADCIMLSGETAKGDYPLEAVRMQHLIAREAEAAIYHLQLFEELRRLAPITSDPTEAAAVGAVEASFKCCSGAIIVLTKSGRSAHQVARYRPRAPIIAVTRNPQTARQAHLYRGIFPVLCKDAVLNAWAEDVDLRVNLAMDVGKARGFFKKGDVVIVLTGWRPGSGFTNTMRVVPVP

Structure (SMILES): C=C1C(=O)O[C@H]2[C@H]1CC/C(COC(F)(F)F)=C\CC[C@@]1(C)O[C@@H]21
- IC50 [1]: 0.43 µM
- AC50 [2]: 0.144 µM
- Ratio IC50 [3]: 5
- Activity [4]: Active
- Ka [5]: 1.12 10^4/Ms
- Kd [6]: 0.028 s⁻¹
- Kd [7]: 2.48 µM
- Activity [8]: Active
- Activity [9]: Active
- inhibition [10]: Active
- Activity [11]: inactive
- Activity [12]: Active
- inhibition [13]: Active
- inhibition [14]: Active
- inhibition [15]: Active
- inhibition [16]: Active
- Activity [17]: 17.11%
- Activity [18]: 14.67%
- Activity [19]: 9.84%
- Activity [20]: 23.97%
- Activity [21]: 24.84%
- Activity [22]: 25.4%
- inhibition [23]: inactive
- inhibition [24]: inactive
- inhibition [25]: Dose-Dependent Effect
- inhibition [26]: Active
- inhibition [27]: Active
- inhibition [28]: Active
- inhibition [29]: Active
- inhibition [30]: Active
- inhibition [31]: Active
- inhibition [32]: Active
- Activity [33]: Active
- Activity [34]: Active
- Activity [35]: Active
- Activity [36]: Active
- Activity [37]: Active
- Activity [38]: Active
